Test results reported in ChEMBL document CHEMBL1201862, “PubChem BioAssay data set” (2004).
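All cell lines were grown in 96-well plates and treated with compound for 48 hours. Here, GI50 denotes the concentration required for 50% inhibition of growth.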 Active and inactive are the calls of the source. Cut-off read from the data, not from the text of the source: active = GI50 up to about 1.1 µM and inactive = higher.

Assays:
Assay in all cases: DTP human tumour cell line panel, 48 h
OVCAR-3 = test system: OVCAR-3
EKVX = test system: EKVX
SK-OV-3 = test system: SK-OV-3
OVCAR-5 = test system: OVCAR-5
DMS-114 = test system: DMS-114
SW-620 = test system: SW-620
K562 = test system: K562
HCT-15 = test system: HCT-15
SNB-75 = test system: SNB-75
A498 = test system: A498
U-251 = test system: U-251
HT-29 = test system: HT-29
HCT-116 = test system: HCT-116
HCC 2998 = test system: HCC 2998
UACC-62 = test system: UACC-62
NCI-H522 = test system: NCI-H522
Malme-3M = test system: Malme-3M

Measured: GI50

CN(C)CCNC(=O)c1cccc2ccc(-c3ccncc3)nc12
inactive: OVCAR-3 2.78 µM | EKVX 2.47 µM | SK-OV-3 2.22 µM | OVCAR-5 1.93 µM | DMS-114 2.96 µM | SW-620 1.33 µM | K562 2.58 µM | SNB-75 3.2 µM | A498 1.3 µM | U-251 1.63 µM | HT-29 2.54 µM | HCT-116 1.27 µM | HCC 2998 1.96 µM | UACC-62 1.8 µM
1.44 µM: HCT-15

N=C(N)N/N=C/c1c[nH]c2ccccc12
inactive: OVCAR-3 > 100 µM | EKVX > 100 µM | SK-OV-3 > 100 µM | OVCAR-5 > 100 µM | DMS-114 81.8 µM | SW-620 > 100 µM | K562 > 100 µM | SNB-75 > 100 µM | U-251 > 100 µM | HT-29 > 100 µM | NCI-H522 74.6 µM | HCC 2998 > 100 µM | UACC-62 > 100 µM | Malme-3M > 100 µM
> 100 µM: HCT-15

CCCc1c2c([nH]c(=O)c1C)C(=O)c1[nH]c(=O)c(C)c(CCC)c1C2=O
inactive: OVCAR-3 1.46 µM | OVCAR-5 35.6 µM | DMS-114 2.51 µM | SW-620 4.78 µM | K562 17.4 µM | SNB-75 22.6 µM | A498 > 100 µM | HT-29 4.75 µM | HCT-116 3.01 µM | HCC 2998 38.4 µM | Malme-3M 3.73 µM
11.2 µM: HCT-15

c1ccc2c(c1)CCc1c(-c3n[nH]c4c3CCc3ccccc3-4)n[nH]c1-2
inactive: OVCAR-3 > 100 µM | EKVX > 100 µM | SK-OV-3 > 100 µM | OVCAR-5 > 100 µM | DMS-114 > 100 µM | SW-620 > 100 µM | K562 27.9 µM | SNB-75 56.5 µM | A498 > 100 µM | U-251 > 100 µM | HT-29 76.7 µM | HCT-116 > 100 µM | HCC 2998 > 100 µM | UACC-62 > 100 µM | Malme-3M > 100 µM
> 100 µM: HCT-15

CN(C)c1ccc(C(C=C2c3ccccc3Sc3ccccc32)=C(C#N)C#N)cc1
> 100 µM: HCT-15
inactive: OVCAR-3 45.7 µM | EKVX > 100 µM | SK-OV-3 > 100 µM | OVCAR-5 > 100 µM | DMS-114 56.4 µM | SW-620 > 100 µM | K562 5.65 µM | SNB-75 17.1 µM | A498 > 100 µM | U-251 37.6 µM | HT-29 > 100 µM | HCT-116 > 100 µM | HCC 2998 > 100 µM | UACC-62 57.4 µM | Malme-3M > 100 µM

CCCCCCCCCCCC(=O)c1c(O)cccc1O
inactive: OVCAR-3 17.5 µM | EKVX 19.1 µM | SK-OV-3 30.8 µM | OVCAR-5 15.2 µM | DMS-114 19.2 µM | SW-620 19.1 µM | K562 31.9 µM | SNB-75 16.8 µM | U-251 19.3 µM | HT-29 22.3 µM | NCI-H522 18.7 µM | HCT-116 18 µM | HCC 2998 19.7 µM | UACC-62 19.6 µM | Malme-3M 14.6 µM
18.6 µM: HCT-15

N=C(N)NNC(=O)CCCCCCCC(=O)NNC(=N)N
inactive: EKVX > 100 µM | SK-OV-3 > 100 µM | OVCAR-5 > 100 µM | DMS-114 62.7 µM | SW-620 10.4 µM | K562 > 100 µM | A498 > 100 µM | U-251 > 100 µM | HT-29 > 100 µM | HCT-116 > 100 µM | HCC 2998 > 100 µM | UACC-62 > 100 µM | Malme-3M > 100 µM
17.9 µM: HCT-15
